In patent US9060955B2, “Transdermal therapeutic system with crystallization-inhibiting protective film (release liner)” (Bayer Intellectual Property GmbH, priority 2010, dated 2015):

Experiment: Solubility of GSD in the active-ingredient-containing matrix
Format: physicochemical

C#C[C@]1(O)C=C[C@H]2[C@@H]3CCC4=CC(=O)CC[C@@H]4[C@H]3CC[C@@]21CC [GSD, gestodene]
Solubility in the active-ingredient-containing matrix: ca. 2%
